From patent publication US9475841B2, “Melanoma antigen peptide and uses thereof” (INSERM (INSTITUT NATIONAL DE LA SANTE ET DE LA RECHERCHE …, priority 2012, dated 2016)

How the values were obtained:
[1] = tested on: MELOE-1 specific CD4 T cells; assay: MELOE-1 CD4+ T cell responses in PBMC from melanoma patients: restimulation with peptides, CD4/IFN-γ (Th1) and CD4/IL4 (Th2) staining; format: cell-based, human; conditions: for mean % of cytokine producing CD4 T cells, in positive microcultures (IFN-γ): Th1; for mean % of cytokine producing CD4 T cells, in positive microcultures (IL4): Th2; for Th1 responses (IFN-γ positive microcultures) / Th2 responses (IL4 positive microcultures): positive/tested microcultures
Description: PBMC from melanoma patients were stimulated with 10 μM of MELOE-1. After 14 days, the presence of CD4 T cells specific for the different regions of MELOE-1 was assessed by restimulating cells with MELOE-12-21, MELOE-111-30 and MELOE-122-46 peptides, followed by CD4/IFN-γ double staining for the detection of Th1 responses, and by CD4/IL4 double staining for Th2 responses. Between brackets is indicated the mean % of cytokine producing CD4 T cells, in positive microcultures.
(§1) PBMC from healthy donors or melanoma patients (2·10^5 cells/well) were cultured for 14 days with 10 μM of MELOE-1 whole antigen (46 amino acids) in RPMI medium supplemented with 8% HS, 50 IU/ml of rIL-2 (Chiron, France) and L-Glutamin, in 96-well multiplates. Microcultures were then restimulated individually with each overlapping peptide (MELOE-12-21, MELOE-111-30, MELOE-118-37, MELOE-12646 or MELOE-122-46 for melanoma patients) in the presence of 10 μg/mL brefeldin A for 5 hours and the percentage of CD4^+ specific T cells was assessed by TNF-α, IFN-γ or IL-4 intracellular staining. A negative control without peptide was included in all experiments.
In order to confirm the immunogenicity of each MELOE-1 regions in melanoma patients, we stimulated melanoma patients PBMC with the MELOE-1 whole protein, and tested the reactivity of stimulated lymphocytes towards the three most immunogenic regions: 2-21, 11-30, and 22-46. For this study, instead of challenging microcultures with the 18-37 peptide, that appeared poorly immunogenic, we extended the C-terminus region from 26-46 to 22-46, in order to also detect responses to our previously described HLA-DR11-restricted epitope (24-37). […] We tested the induction of CD4 specific responses from MELOE-1 stimulated PBMC of […] melanoma patients. We documented CD4 responses specific for the central region of MELOE-1 (11-30) for 7/9 patients, whereas responses specific for MELOE-12-21 and MELOE-122-46 were respectively detected in 4/9 and 5/9 patients (Table III). These responses were mainly Th1 responses (IFN-g production) while less frequent Th2 responses specific for the three regions of MELOE-1 were detected in 3/9 patients for MELOE-12-21, 2/9 patients for MELOE-111-30 and 5/9 patients for MELOE-122-46 (Table III). […] Concerning Th2 responses, much less frequent, the C-term region appeared to induce more frequently the growth of IL-4 producing CD4 T cells than the two other regions (FIG. 2A). […] In summary, stimulation of patient's PBMC with MELOE-1 induced Th1 responses specific for diverse epitopes located all along the protein sequence, and among the different regions, the central region (11-30) and the C-term region (22-46) appeared to be especially immunogenic in term of frequency of responses.

[2] = tested on: MELOE-1 specific CD4+ T cells; assay: MELOE-1 CD4+ T cell responses in PBMC from healthy donors: restimulation of microcultures with overlapping peptides, CD4/TNF-α staining; format: cell-based, human; conditions: for Microcultures containing MELOE-1 specific CD4+ T cells (TNF-α production): positive/tested microcultures
Description: PBMC from healthy donors were stimulated with 10 μM of MELOE-1. After 14 days, the presence of CD4 T cells specific for the different regions of MELOE-1 was assessed by restimulating cells with MELOE-12-21, MELOE-111-30, MELOE-118-37 and MELOE-126-46 peptides, followed by CD4/TNF-α double staining and flow cytometry analysis. Between brackets is indicated the mean % of TNF-α producing CD4 T cells, in positive microcultures. NA: not available.
as §1
Our purpose was to look for the existence of class II helper epitopes all along MELOE-1 sequence (SEQ ID NO:20), in order to document the immunogenicity of the different regions of this melanoma antigen. We stimulated 2·10^7 PBMC from seven healthy donors with MELOE-1 whole antigen and tested, after a 14-day culture period the presence of CD4 T cells specific for each region of the protein. Microcultures were screened for TNFα production by CD4+ T cells, after restimulation with four MELOE-1 derived overlapping peptides (Table I), in an autopresentation assay. […] On the contrary, the central region 18-37, containing an already described DR11-restricted epitope (24-37) located just at the end of this 20-mer peptide (Rogel et al., 2011), induced specific responses in microcultures deriving from only 2/7 donors (HD9 and HD17, both expressing the DR11 element). In these two donors, we detected 6 and 7% of positive microcultures, containing between 0.6 to 3.7% of TNFα producing CD4 T cells.

TSREQFLPSEGAACPPWHPS [MELOE-111-30]
Th1 responses, % of tested microcultures ([1]; 576 tested microcultures from melanoma patients, IFN-γ): 10.8%
patients in which Th2 responses were detected ([1]; melanoma patients, IL4): 2/9
patients in which CD4 responses specific for the region were detected ([1]; melanoma patients, Table III, Th1 (IFN-γ)): 7/9
mean % of cytokine producing CD4 T cells, in positive microcultures (IFN-γ) ([1]; patient Pt ≠ 1): (1.4% ± 0.7)
mean % of cytokine producing CD4 T cells, in positive microcultures (IL4) ([1]; patient Pt ≠ 1): (1%)
Th1 responses (IFN-γ positive microcultures) ([1]; patient Pt ≠ 1): 10/48
Th2 responses (IL4 positive microcultures) ([1]; patient Pt ≠ 1): 1/48
mean % of cytokine producing CD4 T cells, in positive microcultures (IFN-γ) ([1]; patient Pt ≠ 2): (1.6% ± 1.2)
Th1 responses (IFN-γ positive microcultures) ([1]; patient Pt ≠ 2): 16/96
Th2 responses (IL4 positive microcultures) ([1]; patient Pt ≠ 2): 0/96
Th1 responses (IFN-γ positive microcultures) ([1]; patient Pt ≠ 3 (DPβ1*0201/2001, DQβ1*0303/0501, DRβ1*0101/0701)): 5/96
mean % of cytokine producing CD4 T cells, in positive microcultures (IFN-γ) ([1]; patient Pt ≠ 3): (16.2% ± 33.2)
Th2 responses (IL4 positive microcultures) ([1]; patient Pt ≠ 3): 0/96
mean % of cytokine producing CD4 T cells, in positive microcultures (IFN-γ) ([1]; patient Pt ≠ 4): (0.9% ± 0.5)
Th1 responses (IFN-γ positive microcultures) ([1]; patient Pt ≠ 4): 9/48
Th2 responses (IL4 positive microcultures) ([1]; patient Pt ≠ 4): 0/48
mean % of cytokine producing CD4 T cells, in positive microcultures (IFN-γ) ([1]; patient Pt ≠ 5): (1.5% ± 1.1)
Th1 responses (IFN-γ positive microcultures) ([1]; patient Pt ≠ 5): 6/48
Th2 responses (IL4 positive microcultures) ([1]; patient Pt ≠ 5): 0/48
mean % of cytokine producing CD4 T cells, in positive microcultures (IFN-γ) ([1]; patient Pt ≠ 6): (1.5% ± 1.9)
Th1 responses (IFN-γ positive microcultures) ([1]; patient Pt ≠ 6): 5/48
Th2 responses (IL4 positive microcultures) ([1]; patient Pt ≠ 6): 0/48
Th1 responses (IFN-γ positive microcultures) ([1]; patient Pt ≠ 7): 0/48
Th2 responses (IL4 positive microcultures) ([1]; patient Pt ≠ 7): 0/48
mean % of cytokine producing CD4 T cells, in positive microcultures (IFN-γ) ([1]; patient Pt ≠ 8): (2.9% ± 0.04)
Th1 responses (IFN-γ positive microcultures) ([1]; patient Pt ≠ 8): 2/48
Th2 responses (IL4 positive microcultures) ([1]; patient Pt ≠ 8): 0/48
mean % of cytokine producing CD4 T cells, in positive microcultures (IL4) ([1]; patient Pt ≠ 9): (0.6% ± 0.09)
Th1 responses (IFN-γ positive microcultures) ([1]; patient Pt ≠ 9): 0/48
Th2 responses (IL4 positive microcultures) ([1]; patient Pt ≠ 9): 9/48
frequency of positive microcultures compared with the three other regions of MELOE-1 ([2]; all healthy donors, FIG. 1, p<0.0001): significantly higher
mean % of TNF-α producing CD4 T cells, in positive microcultures ([2]; donor HD9): (2.4% ± 1.5)
Microcultures containing MELOE-1 specific CD4+ T cells (TNF-α production) ([2]; donor HD9 (DPβ1*0902/1501, DQβ1*0301, DRβ1*1104/1201)): 13/96
mean % of TNF-α producing CD4 T cells, in positive microcultures ([2]; donor HD17): (8.2% ± 6.5)
Microcultures containing MELOE-1 specific CD4+ T cells (TNF-α production) ([2]; donor HD17 (DPβ1*0401/0301, DQβ1*0301/0603, DRβ1*1101/1301)): 26/96
mean % of TNF-α producing CD4 T cells, in positive microcultures ([2]; donor HD22): (3.9% ± 3.3)
Microcultures containing MELOE-1 specific CD4+ T cells (TNF-α production) ([2]; donor HD22 (DPβ1*0401/1101, DQβ1*0202, DRβ1*0701)): 2/96
mean % of TNF-α producing CD4 T cells, in positive microcultures ([2]; donor HD24): (2% ± 1.4)
Microcultures containing MELOE-1 specific CD4+ T cells (TNF-α production) ([2]; donor HD24 (DPβ1*0401/0101, DQβ1*0501/0602, DRβ1*0101/1501)): 46/96
mean % of TNF-α producing CD4 T cells, in positive microcultures ([2]; donor HD25): (1.2% ± 0.7)
Microcultures containing MELOE-1 specific CD4+ T cells (TNF-α production) ([2]; donor HD25 (DPβ1*0401/0402, DQβ1*0201, DRβ1*0301)): 3/96
mean % of TNF-α producing CD4 T cells, in positive microcultures ([2]; donor HD27): (5% ± 3.4)
Microcultures containing MELOE-1 specific CD4+ T cells (TNF-α production) ([2]; donor HD27 (DQβ1*501/0201, DRβ1*0101/0301)): 5/96
Microcultures containing MELOE-1 specific CD4+ T cells (TNF-α production) ([2]; donor HD28 (DRβ1*0301)): 14/48
donors in which CD4 responses against the region were detected ([2]; seven healthy donors): each tested donor
